Data published in ChEMBL document CHEMBL1136120, “Effect of catechol derivatives on cell growth and lipoxygenase activity” (Bioorg Med Chem Lett, 2003).

Columns and labels:
MAC13 = test: Inhibitory activity against MAC13 cell lines; type: functional, cell-based; conditions: Mus musculus
MAC16 [1] = test: Inhibitory activity against MAC16 cell lines; type: functional, cell-based; conditions: Mus musculus
[2] = biological target: Polyunsaturated fatty acid lipoxygenase ALOX15 (Oryctolagus cuniculus) (UniProt P12530); test: Inhibition of rabbit reticulocyte 15-lipoxygenase by compound (30 uM)
Chain of Polyunsaturated fatty acid lipoxygenase ALOX15 (Oryctolagus cuniculus) (P12530 whole entry, looked up): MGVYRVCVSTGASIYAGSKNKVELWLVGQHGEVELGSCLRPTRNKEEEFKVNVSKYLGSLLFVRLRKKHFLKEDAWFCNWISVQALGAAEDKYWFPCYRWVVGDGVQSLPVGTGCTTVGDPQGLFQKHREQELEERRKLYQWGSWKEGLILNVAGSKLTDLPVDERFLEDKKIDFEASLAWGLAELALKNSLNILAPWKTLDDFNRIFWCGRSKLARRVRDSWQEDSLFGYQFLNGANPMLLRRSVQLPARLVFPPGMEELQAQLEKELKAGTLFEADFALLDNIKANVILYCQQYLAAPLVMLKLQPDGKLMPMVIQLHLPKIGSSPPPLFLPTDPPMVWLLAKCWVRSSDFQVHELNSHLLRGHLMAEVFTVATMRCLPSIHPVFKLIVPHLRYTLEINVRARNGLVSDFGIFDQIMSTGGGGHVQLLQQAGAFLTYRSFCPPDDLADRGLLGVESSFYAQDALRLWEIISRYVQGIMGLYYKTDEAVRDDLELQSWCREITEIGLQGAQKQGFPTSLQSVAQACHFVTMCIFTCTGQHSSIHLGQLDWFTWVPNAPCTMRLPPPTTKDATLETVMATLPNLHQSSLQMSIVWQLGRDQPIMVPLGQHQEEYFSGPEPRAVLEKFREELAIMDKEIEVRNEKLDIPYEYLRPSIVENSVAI

MAC16 [3] = test: Effect on metabolism of arachidonic acid for 5-HETE production through 5-LOX (5-lipoxygenase) pathway; type: functional, Mus musculus
MAC16 [4] = test: Effect on metabolism of arachidonic acid for 5-HETE production through 12-LOX (12-lipoxygenase) pathway; type: functional, Mus musculus
MAC16 [5] = test: Effect on metabolism of arachidonic acid for 5-HETE production through 15-LOX (15-lipoxygenase) pathway; type: functional, Mus musculus
MAC16 [6] = test: Effect on metabolism of arachidonic acid for 12-HETE production through 12-LOX (12-lipoxygenase) pathway; type: functional, Mus musculus
MAC16 [7] = test: Effect on metabolism of arachidonic acid for 15-HETE production through 15-LOX (15-lipoxygenase) pathway; type: functional, Mus musculus

## CCCCCCCc1ccc(C(=O)Nc2ccc(O)c(O)c2)cc1
MAC13
  IC50: 900 nM
MAC16 [1]
  IC50: 1000 nM

## O=C(Nc1ccc(O)c(O)c1)c1ccc(NCc2ccccc2O)cc1
[2]
  inhibition: 103%

## O=C(Nc1ccc(NC(=O)c2ccccc2O)cc1)Nc1ccc(O)c(O)c1
[2]
  inhibition: 104%

## O=C(Nc1ccc(O)c(O)c1)c1ccc(NC(=O)c2ccccc2O)cc1
[2]
  inhibition: 100%

## CC1=C(C)C(=O)C(Cc2cccnc2)=C(C)C1=O
MAC16 [3]
  Eicosanoid production: 13.3 pM 2hr-1
MAC16 [4]
  Eicosanoid production: 15 pM 2hr-1
MAC13
  IC50: 6300 nM
[2]
  inhibition: 3%
MAC16 [5]
  Eicosanoid production: 22.2 pM 2hr-1
MAC16 [1]
  IC50: 4750 nM

## O=C(/C=C/c1ccc(NC(=O)c2ccccc2O)cc1)Nc1ccc(O)c(O)c1
MAC13
  IC50: 3000 nM
[2]
  inhibition: 102%
MAC16 [1]
  IC50: 300000 nM

## O=C(CCc1ccc(NC(=O)c2ccccc2O)cc1)Nc1ccc(O)c(O)c1
[2]
  inhibition: 99%

## O=C(Nc1ccc(/N=C(\S)Nc2ccc(O)c(O)c2)cc1)c1ccccc1O
[2]
  inhibition: 103%

## O=C(CCc1cccc(NC(=O)c2ccccc2O)c1)Nc1ccc(O)c(O)c1
MAC16 [3]
  Eicosanoid production: 4.7 pM 2hr-1
MAC13
  IC50: 330 nM
MAC16 [6]
  Eicosanoid production: 7.8 pM 2hr-1
[2]
  inhibition: 102%
MAC16 [7]
  Eicosanoid production: 5.3 pM 2hr-1
MAC16 [1]
  IC50: 2600 nM

## COc1ccccc1C(=O)Nc1ccc(CCC(=O)Nc2ccc3c(c2)OC(C)(CCc2ccccc2)O3)cc1 (configuration not stated)
MAC16 [3]
  Eicosanoid production: 110 pM 2hr-1
MAC16 [4]
  Eicosanoid production: 78 pM 2hr-1
MAC13
  IC50: > 50000 nM
MAC16 [5]
  Eicosanoid production: 91.5 pM 2hr-1
MAC16 [1]
  IC50: > 50000 nM
